Usually melting point stands for the temperature, or range, at which the solid turns liquid.

In patent US20060223819A1, “Quinoline Derivatives as NK-3 Antagonists” (GlaxoSmithKline S.P.A. & Laboratoire, priority 2000, published 2006) one finds melting point data, which are given here for 30 compounds.

The structures appear in SMILES notation. Structures can show the parent of a compound that is named as a salt.

On to `C[C@H](NC(=O)c1c(CN2CCN(CC(N)=O)CC2)c(-c2ccccc2)nc2ccccc12)C1CCCCC1` [Example 19, 3-(4-Carbamoylmethyl-piperazin-1-ylmethyl)-2-phenyl-quinoline-4-carboxylic acid ((S)-1-cyclohexyl-ethyl)-amide], for which the melting point lay within 125 to 130 °C.
The compound `C[C@H](NC(=O)c1c(CN2CCN(CC(C(=O)O)c3ccccc3)CC2)c(-c2ccccc2)nc2ccccc12)C1CCCCC1` (stereo partly drawn) [Example 22, 3-{4-[4-((S)-1-Cyclohexyl-ethylcarbamoyl)-2-phenyl-quinolin-3-ylmethyl]-piperazin-1-yl}-2-phenyl-propionic acid] came in with a melting point of 144 to 145 °C.
The value for `C[C@H](NC(=O)c1c(CN2CCNC(=O)C2)c(-c2ccccc2)nc2cc(F)ccc12)C1CCCCC1` [Example 35, 7-Fluoro-3-(3-oxopiperazin-1-ylmethyl)-2-phenylquinoline-4-carboxylic acid ((S)-1-cyclohexyl-ethyl)-amide] was 163 to 165 °C; that for `CCCN1CCN(Cc2c(-c3ccccc3)nc3ccccc3c2C(=O)N[C@@H](C)C2CCCCC2)CC1=O` [Example 36, 3-(3-Oxo-4-propyl-piperazin-1-ylmethyl)-2-phenyl-quinoline-4-carboxylic acid ((S)-1-cyclohexyl-ethyl)-amide] was 150 °C; that for `C[C@H](NC(=O)c1c(CN2CCNCC2=O)c(-c2ccccc2)nc2ccccc12)C1CCCCC1` [Example 30, 3-(2-Oxopiperazin-1-ylmethyl)-2-phenylquinoline-4-carboxylic acid ((S)-1-cyclohexylethyl)-amide] was 212 °C.
`C[C@H](NC(=O)c1c(CN2CC(=O)NC(=O)C2)c(-c2ccccc2)nc2ccccc12)C1CCCCC1` [Example 29, 3-(3,5-Dioxopiperazin-1-ylmethyl)-2-phenylquinoline-4-carboxylic acid ((S)-1-cyclohexylethyl)-amide] gave a melting point of 124 °C.
Next, `C[C@H](NC(=O)c1c(CN2CCNCC2)c(-c2ccccc2)nc2ccc(F)cc12)C1CCCCC1` [Example 24, 6-Fluoro-2-phenyl-3-piperazin-1-ylmethylquinoline-4-carboxylic acid ((S)-1-cyclohexylethyl)-amide]: 154 to 158 °C; `COc1cc2nc(-c3ccccc3)c(CN3CCNCC3)c(C(=O)N[C@@H](C)C3CCCCC3)c2cc1OC` [Example 10, 6,7-Dimethoxy-2-phenyl-3-piperazin-1-ylmethyl-quinoline-4-carboxylic acid ((S)-1-cyclohexyl-ethyl)-amide]: 130 to 132 °C.
Next, `C[C@H](NC(=O)c1c(CN2CCNC(=O)C2)c(-c2cccs2)nc2ccccc12)C1CCCCC1` [Example 41, 3-(3-Oxo-piperazin-1-ylmethyl)-2-thiophen-2-yl-quinoline-4-carboxylic acid ((S)-1-cyclohexylethyl)-amide]: 225 to 230 °C.
`C[C@H](NC(=O)c1c(CN2CCN(CC(Cc3ccccc3)C(=O)O)CC2)c(-c2ccccc2)nc2ccccc12)C1CCCCC1` (mixture of isomers) [Example 17, 2-Benzyl-3-{4-[4-((S)-1-cyclohexyl-ethylcarbamoyl)-2-phenyl-quinolin-3-ylmethyl]-piperazin-1-yl}-propionic acid] gave a melting point of 136 °C.
`C[C@H](NC(=O)c1c(CN2CC(=O)NCC2=O)c(-c2ccccc2)nc2ccccc12)C1CCCCC1` [Example 31, 3-(2,5-Dioxo-piperazin-1-ylmethyl)-2-phenyl-quinoline-4-carboxylic acid ((S)1-cyclohexylethyl)-amide] registered a melting point of 251 °C.
The value for `C[C@H](NC(=O)c1c(CN2CCN(CCO)C(=O)C2)c(-c2ccccc2)nc2ccccc12)C1CCCCC1` (as salt: hydrochloride) [Example 37, 3-[4-(2-Hydroxyethyl)-3-oxopiperazin-1-ylmethyl]-2-phenylquinoline-4-carboxylic acid ((S)-1-cyclohexyl-ethyl)-amide dihydrochloride] was 171 to 173 °C; that for `C[C@H](NC(=O)c1c(CN2CCNC(=O)C2)c(-c2ccccc2F)nc2ccccc12)C1CCCCC1` [Example 46, 2-(2-Fluorophenyl)-3-(3-oxopiperazin-1-ylmethyl)-quinoline-4-carboxylic acid ((S)-1-cyclohexyl-ethyl)-amide] was 167 to 169 °C.
The value for `C[C@H](NC(=O)c1c(CN2CCNC(=O)C2)c(-c2ccc(C(F)(F)F)cc2)nc2ccccc12)C1CCCCC1` [Example 45, 3-(3-Oxopiperazin-1-ylmethyl)-2-(4-trifluoromethylphenyl)quinoline-4-carboxylic acid ((S)-1-cyclohexylethyl)-amide] was 214 to 217 °C; that for `CC(C)[C@H](NC(=O)c1c(CN2CCNC(=O)C2)c(-c2ccccc2)nc2ccccc12)c1ccccc1` [Example 42, 3-(3-Oxo-piperazin-1-ylmethyl)-2-phenyl-quinoline-4-carboxylic acid ((S)-2-methyl-1-phenyl-propyl)-amide] was 137 °C.
The value for `C[C@H](NC(=O)c1c(CN2CCNCC2)c(-c2ccccc2)nc2cc3c(cc12)OCCO3)C1CCCCC1` [Example 9, 7-Phenyl-8-piperazin-1-ylmethyl-2,3-dihydro-[1,4]dioxino[2,3-g]quinoline-9-carboxylic acid ((S)-1-cyclohexyl-ethyl)-amide] was 135 to 137 °C.
`C[C@H](NC(=O)c1c(CN2CCN(Cc3ccccc3)C(=O)C2)c(-c2ccccc2)nc2ccccc12)C1CCCCC1` [Example 33, 3-(4-Benzyl-3-oxopiperazin-1-ylmethyl)-2-phenylquinoline-4-carboxylic acid ((S)-1-cyclohexylethyl)-amide] registered a melting point of 181 °C.
The value for `C[C@H](NC(=O)c1c(CN2CCNCC2)c(-c2ccccc2)nc2ccccc12)c1ccc(O)cc1` [Example 6, 2-Phenyl-3-piperazin-1-ylmethyl-quinoline-4-carboxylic acid [(S)-1-(4-hydroxy-phenyl)-ethyl]-amide] was 163 °C.
`CCOC(=O)C(CN1CCN(Cc2c(-c3ccccc3)nc3ccccc3c2C(=O)N[C@@H](C)C2CCCCC2)CC1)c1ccccc1` (stereo partly drawn) [Example 20, 3-{4-[4-((S)-1-Cyclohexyl-ethylcarbamoyl)-2-phenyl-quinolin-3-ylmethyl]-piperazin-1-yl}-2-phenyl-propionic acid ethyl ester] came in with a melting point of 90 to 91 °C.
`CC(C)[C@H](NC(=O)c1c(CN2CCN(/C(=C/[N+](=O)[O-])N3CCCC3)CC2)c(-c2ccccc2)nc2ccccc12)c1ccccc1` [Example 13, 3-[4-(2-Nitro-1-pyrrolidin-1-yl-vinyl)-piperazin-1-ylmethyl]-2-phenyl-quinoline-4-carboxylic acid ((S)-2-methyl-1-phenyl-propyl)-amide] returned a melting point of 170 to 175 °C.
Next, `C[C@H](NC(=O)c1c(CN2CCNC(=O)C2)c(-c2ccccc2)nc2ccc(F)cc12)C1CCCCC1` [Example 32, 6-Fluoro-3-(3-oxo-piperazin-1-ylmethyl)-2-phenyl-quinoline-4-carboxylic acid ((S)-1-cyclohexyl-ethyl)-amide]: 230 °C; `COc1ccc([C@H](C)NC(=O)c2c(CN3CCNCC3)c(-c3ccccc3)nc3ccccc23)cc1` [Example 2, 2-Phenyl-3-piperazin-1-ylmethyl-quinoline-4-carboxylic acid[(S)-1-(4-methoxy-phenyl)-ethyl]-amide]: 109 to 111 °C.
Next, `CCOC(=O)C1CCCN(/C(=C\[N+](=O)[O-])N2CCN(Cc3c(-c4ccccc4)nc4ccccc4c3C(=O)N[C@@H](C)c3ccccc3)CC2)C1` (stereo partly drawn) [Example 15, 1-(2-Nitro-1-{4-[2-phenyl-4-((S)-1-phenyl-ethylcarbamoyl)-quinolin-3-ylmethyl]-piperazin-1-yl}-vinyl)-piperidine-3-carboxylic acid ethyl ester]: 120 to 121 °C; `CC[C@H](NC(=O)c1c(CN2CCNC(=O)C2)c(-c2ccccc2)nc2ccccc12)c1ccccc1` [Example 40, 3-(3-Oxo-piperazin-1-ylmethyl)-2-phenyl-quinoline-4-carboxylic acid((S)-1-phenyl-propyl)-amide]: 160 °C; `CC(C)[C@H](NC(=O)c1c(CN2CCN(CC(C(=O)O)c3ccccc3)CC2)c(-c2ccccc2)nc2ccccc12)c1ccccc1` (stereo partly drawn) [Example 16, 3-{4-[4-((S)-2-Methyl-1-phenyl-propylcarbamoyl)-2-phenyl-quinolin-3-ylmethyl]-piperazin-1-yl}-2-phenyl-propionic acid]: 156 to 158 °C.
Next, `C[C@H](NC(=O)c1c(CN2CCNC(=O)C2)c(-c2ccccc2)nc2c(F)cccc12)C1CCCCC1` [Example 39, 8-Fluoro-3-(3-oxo-piperazin-1-ylmethyl)-2-phenylquinoline-4-carboxylic acid ((S)-1-cyclohexyl-ethyl)-amide]: 165 °C; `C[C@H](NC(=O)c1c(CN2CCNC(=O)C2)c(-c2ccccc2)nc2cc3c(cc12)OCCO3)C1CCCCC1` [Example 38, 8-(3-Oxo-piperazin-1-ylmethyl)-7-phenyl-2,3-dihydro-[1,4]dioxino[2,3-g]quinoline-9-carboxylic acid ((S)-1-cyclohexyl-ethyl)-amide]: 144 to 145 °C; `C[C@H](NC(=O)c1c(CN2CCN(CCC(=O)O)CC2)c(-c2ccccc2)nc2ccccc12)C1CCCCC1` [Example 18, 3-{4-[4-((S)-1-Cyclohexyl-ethylcarbamoyl)-2-phenyl-quinolin-3-ylmethyl]-piperazin-1-yl}-propionic acid]: 192 to 195 °C.
For `C[C@@H](NC(=O)c1c(CN2CCNCC2)c(-c2ccccc2)nc2ccccc12)C1CCCCC1` [Example 5, 2-Phenyl-3-piperazin-1-ylmethyl-quinoline-4-carboxylic acid((R)-1-cyclohexyl-ethyl)-amide], the melting point fell in the range of 118 to 120 °C.
The value for `C[C@H](NC(=O)c1c(CN2CCNCC2)c(-c2ccccc2)nc2ccccc12)c1cccc(O)c1` [Example 4, 2-Phenyl-3-piperazin-1-ylmethyl-quinoline-4-carboxylic acid [(S)-1-(3-hydroxy-phenyl)-ethyl]-amide] was 240 to 244 °C.
